Results: patent publication US12371464B2, “Polypeptides and uses thereof” (MEDIMMUNE LIMITED, priority 2020, dated 2025)
One block for each compound: values may come before it. Numbered stars: 1 amine (or outer) side, 2 acyl side, 3 side chain; on linkers, the order of the positions; unused ones are H or OH. Bridge positions count the residues as written; N and C are the ends. Square brackets hold non-standard residues; d marks the D form. Side chains are listed from the residue outwards. Peptide text beside a SMILES is read from it. * marks the point of attachment. C18 diacid = O=C(O)CCCCCCCCCCCCCCCCC(=O)*; γGlu = O=C(O)[C@H](CCC(=O)[*:2])N[*:1]; Dab = NCC[C@H](N)C(=O)O; AEEA = NCCOCCOCC(=O)O; Aib = CC(C)(N)C(=O)O

Experiment: Thioflavin T fibrillation assay
Assay type: physicochemical
Settings: for Time taken to detect increase in fluorescence intensity: 1 mg/mL in 25 mM sodium acetate buffer pH 4.0, 37° C., 6 days, orbital shaking, >144 h = no increase; for fibril-forming tendency on conjugating pramlintide to a lipid: as seen in Table 7
Text: Peptide aggregation that form fibrils is an indication of physical instability. Fibril formation in solution poses a significant risk for the stability of injectable peptide drug products. Thioflavin T (ThT) fibrillation assay is a useful tool to assess the aggregation kinetics of a peptide or protein under accelerated and stressed conditions that can be used to forecast the long-term viability of a compound in solution. ThT can selectively bind amyloid fibrils and the resultant complex emits strong fluorescence signal at 482 nm when excited at 450 nm (Anal Biochem. 1989 March; 177 (2): 244-9). Monitoring of the change in fluorescence signal is an established method to study the fibril forming potential of peptides and proteins. ThT (purchased from Sigma Aldrich) stock solution is prepared by dissolving the ThT powder in Milli-Q water and filtered to obtain a 0.25 mM solution. The concentration of the solution is measured at 412 nm using an extinction coefficient of 36 mM-1 cm-1. Test peptides were dissolved at 1 mg/mL in 25 mM sodium acetate buffer pH 4.0. 100 μL aliquot of peptide solution and 5 μL aliquot of ThT solution were placed in a clear bottom black fluorescence 96-well plate. 5 replicates of each test samples were placed in the same row of the plate. Buffer was placed in control wells for baseline correction. All empty wells were filled with water to prevent evaporation. The plate was sealed with aluminium seal and placed in fluorescence plate reader and incubated for 6 days at 37° C. with intermittent orbital shaking at 500 to 750 rpm. The fluorescence intensity was measured every 30 min using excitation at 444 nm and emission at 480 nm. The fibril forming potential of the test peptides was determined by measuring the average time taken to detect an increase in baseline corrected fluorescence intensity.

SMILES: CC[C@H](C)[C@H](NC(=O)[C@@H]1CCCN1C(=O)CNC(=O)[C@H](Cc1ccccc1)NC(=O)[C@H](CC(N)=O)NC(=O)[C@H](CC(N)=O)NC(=O)[C@H](CO)NC(=O)[C@H](CO)NC(=O)[C@H](Cc1c[nH]cn1)NC(=O)[C@@H](NC(=O)[C@H](CC(C)C)NC(=O)[C@H](Cc1ccccc1)NC(=O)[C@H](CC(N)=O)NC(=O)[C@H](C)NC(=O)[C@H](CC(C)C)NC(=O)[C@H](CCCNC(=N)N)NC(=O)[C@H](CCC(N)=O)NC(=O)[C@@H](NC(=O)[C@H](C)NC(=O)[C@@H]1CSSC[C@H](NC(=O)[C@H](CCCCN)NC(=O)CC[C@H](NC(=O)CCCCCCCCCCCCCCCCC(=O)O)C(=O)O)C(=O)N[C@@H](CC(N)=O)C(=O)N[C@@H]([C@@H](C)O)C(=O)N[C@@H](C)C(=O)N[C@@H]([C@@H](C)O)C(=O)N1)[C@@H](C)O)C(C)C)C(=O)N[C@@H](CC(C)C)C(=O)N1CCC[C@H]1C(=O)N1CCC[C@H]1C(=O)N[C@H](C(=O)N[C@@H](CC(N)=O)C(=O)N[C@H](C(=O)NCC(=O)N[C@@H](CO)C(=O)N[C@@H](CC(N)=O)C(=O)N[C@H](C(=O)N[C@@H](Cc1ccc(O)cc1)C(N)=O)[C@@H](C)O)C(C)C)[C@@H](C)O [Peptide 3] ({C18 diacid-γGlu}-KCNTATCATQRLANFLVHSSNNFGPILPPTNVGSNTY-NH2; disulfide 2-7)
Time taken to detect increase in fluorescence intensity: <5 h
fibril-forming tendency on conjugating pramlintide to a lipid: increases the fibril-forming tendency

SMILES: CC[C@H](C)[C@H](NC(=O)[C@@H]1CCCN1C(=O)CNC(=O)[C@H](Cc1ccccc1)NC(=O)[C@H](CC(N)=O)NC(=O)[C@H](CC(N)=O)NC(=O)[C@H](CO)NC(=O)[C@H](CO)NC(=O)[C@H](Cc1c[nH]cn1)NC(=O)[C@@H](NC(=O)[C@H](CC(C)C)NC(=O)[C@H](Cc1ccccc1)NC(=O)[C@H](CC(N)=O)NC(=O)[C@H](C)NC(=O)[C@H](CC(C)C)NC(=O)[C@H](CCCNC(=N)N)NC(=O)[C@H](CCC(N)=O)NC(=O)[C@@H](NC(=O)[C@H](C)NC(=O)[C@@H]1CSSC[C@H](NC(=O)[C@H](CCCCN)NC(=O)CNC(=O)CNC(=O)CNC(=O)CC[C@H](NC(=O)CC[C@H](NC(=O)CCCCCCCCCCCCCCCCC(=O)O)C(=O)O)C(=O)O)C(=O)N[C@@H](CC(N)=O)C(=O)N[C@@H]([C@@H](C)O)C(=O)N[C@@H](C)C(=O)N[C@@H]([C@@H](C)O)C(=O)N1)[C@@H](C)O)C(C)C)C(=O)N[C@@H](CC(C)C)C(=O)N1CCC[C@H]1C(=O)N1CCC[C@H]1C(=O)N[C@H](C(=O)N[C@@H](CC(N)=O)C(=O)N[C@H](C(=O)NCC(=O)N[C@@H](CO)C(=O)N[C@@H](CC(N)=O)C(=O)N[C@H](C(=O)N[C@@H](Cc1ccc(O)cc1)C(N)=O)[C@@H](C)O)C(C)C)[C@@H](C)O [Peptide 4] ({C18 diacid-γGlu-γGlu}-GGGKCNTATCATQRLANFLVHSSNNFGPILPPTNVGSNTY-NH2; disulfide 5-10)
Time taken to detect increase in fluorescence intensity: <5 h
fibril-forming tendency on conjugating pramlintide to a lipid: increases the fibril-forming tendency

SMILES: CC[C@H](C)[C@H](NC(=O)[C@@H]1CCCN1C(=O)CNC(=O)[C@H](Cc1ccccc1)NC(=O)[C@H](CC(N)=O)NC(=O)[C@H](CC(N)=O)NC(=O)[C@H](CO)NC(=O)[C@H](CO)NC(=O)[C@H](Cc1c[nH]cn1)NC(=O)[C@@H](NC(=O)[C@H](CC(C)C)NC(=O)[C@H](Cc1ccccc1)NC(=O)[C@H](CC(N)=O)NC(=O)[C@H](C)NC(=O)[C@H](CC(C)C)NC(=O)[C@H](CCCNC(=N)N)NC(=O)[C@H](CCC(N)=O)NC(=O)[C@@H](NC(=O)[C@H](C)NC(=O)[C@@H]1CSSC[C@H](NC(=O)[C@@H](N)CCCCNC(=O)COCCOCCNC(=O)COCCOCCNC(=O)CC[C@H](NC(=O)CCCCCCCCCCCCCCCCC(=O)O)C(=O)O)C(=O)N[C@@H](CC(N)=O)C(=O)N[C@@H]([C@@H](C)O)C(=O)N[C@@H](C)C(=O)N[C@@H]([C@@H](C)O)C(=O)N1)[C@@H](C)O)C(C)C)C(=O)N[C@@H](CC(C)C)C(=O)N1CCC[C@H]1C(=O)N1CCC[C@H]1C(=O)N[C@H](C(=O)N[C@@H](CC(N)=O)C(=O)N[C@H](C(=O)NCC(=O)N[C@@H](CO)C(=O)N[C@@H](CC(N)=O)C(=O)N[C@H](C(=O)N[C@@H](Cc1ccc(O)cc1)C(N)=O)[C@@H](C)O)C(C)C)[C@@H](C)O [Peptide 6] (H-K([AEEA-AEEA-γGlu-C18 diacid])CNTATCATQRLANFLVHSSNNFGPILPPTNVGSNTY-NH2; disulfide 2-7; N-terminus assumed)
Time taken to detect increase in fluorescence intensity: 15 h
fibril-forming tendency on conjugating pramlintide to a lipid: increases the fibril-forming tendency

Further lines, results first:

Time taken to detect increase in fluorescence intensity: 7 h
fibril-forming tendency on conjugating pramlintide to a lipid: increases the fibril-forming tendency
SMILES: CC[C@H](C)[C@H](NC(=O)[C@@H]1CCCN1C(=O)CNC(=O)[C@H](Cc1ccccc1)NC(=O)[C@H](CC(N)=O)NC(=O)[C@H](CC(N)=O)NC(=O)[C@H](CO)NC(=O)[C@H](CO)NC(=O)[C@H](Cc1c[nH]cn1)NC(=O)[C@@H](NC(=O)[C@H](CC(C)C)NC(=O)[C@H](Cc1ccccc1)NC(=O)[C@H](CC(N)=O)NC(=O)[C@H](C)NC(=O)[C@H](CC(C)C)NC(=O)[C@H](CCCNC(=N)N)NC(=O)[C@H](CCC(N)=O)NC(=O)[C@@H](NC(=O)[C@H](C)NC(=O)[C@@H]1CSSC[C@H](NC(=O)[C@@H](N)CCCCNC(=O)CC[C@H](NC(=O)CC[C@H](NC(=O)CCCCCCCCCCCCCCCCC(=O)O)C(=O)O)C(=O)O)C(=O)N[C@@H](CC(N)=O)C(=O)N[C@@H]([C@@H](C)O)C(=O)N[C@@H](C)C(=O)N[C@@H]([C@@H](C)O)C(=O)N1)[C@@H](C)O)C(C)C)C(=O)N[C@@H](CC(C)C)C(=O)N1CCC[C@H]1C(=O)N1CCC[C@H]1C(=O)N[C@H](C(=O)N[C@@H](CC(N)=O)C(=O)N[C@H](C(=O)NCC(=O)N[C@@H](CO)C(=O)N[C@@H](CC(N)=O)C(=O)N[C@H](C(=O)N[C@@H](Cc1ccc(O)cc1)C(N)=O)[C@@H](C)O)C(C)C)[C@@H](C)O [Peptide 5] (H-K([γGlu-γGlu-C18 diacid])CNTATCATQRLANFLVHSSNNFGPILPPTNVGSNTY-NH2; disulfide 2-7; N-terminus assumed)

Time taken to detect increase in fluorescence intensity: 7 h
SMILES: CC[C@H](C)[C@H](NC(=O)[C@H](C)NC(=O)[C@@H]1CCCN1C(=O)[C@H](Cc1ccccc1)NC(=O)[C@H](CC(N)=O)NC(=O)[C@H](CCN)NC(=O)[C@H](CO)NC(=O)[C@H](CO)NC(=O)[C@H](Cc1c[nH]cn1)NC(=O)[C@@H](NC(=O)[C@H](CC(C)C)NC(=O)[C@H](Cc1ccccc1)NC(=O)[C@H](CC(N)=O)NC(=O)[C@H](C)NC(=O)[C@H](CC(C)C)NC(=O)[C@H](CCCNC(=N)N)NC(=O)[C@H](CCC(N)=O)NC(=O)[C@@H](NC(=O)[C@H](C)NC(=O)[C@@H]1CSSC[C@H](NC(=O)[C@@H](N)CCCCNC(=O)CC[C@H](NC(=O)CC[C@H](NC(=O)CCCCCCCCCCCCCCCCC(=O)O)C(=O)O)C(=O)O)C(=O)N[C@@H](CC(N)=O)C(=O)N[C@@H]([C@@H](C)O)C(=O)N[C@@H](C)C(=O)N[C@@H]([C@@H](C)O)C(=O)N1)[C@@H](C)O)C(C)C)C(=O)N[C@@H](CC(C)C)C(=O)N[C@@H](CO)C(=O)N1CCC[C@H]1C(=O)N[C@H](C(=O)N[C@@H](CC(N)=O)C(=O)N[C@H](C(=O)NCC(=O)N[C@@H](CO)C(=O)N[C@@H](CC(N)=O)C(=O)N[C@H](C(=O)N[C@@H](Cc1ccc(O)cc1)C(N)=O)[C@@H](C)O)C(C)C)[C@@H](C)O [Peptide 8, K(γE-γE-C18diacid)[CNTATC]ATQRLANFLVHSS(Dab)NFPAILSPTNVGSNTY-amide] (H-K([γGlu-γGlu-C18 diacid])CNTATCATQRLANFLVHSS[Dab]NFPAILSPTNVGSNTY-NH2; disulfide 2-7; N-terminus assumed)

Time taken to detect increase in fluorescence intensity: 7 h
SMILES: CC[C@H](C)[C@H](NC(=O)[C@H](C)NC(=O)[C@@H]1CCCN1C(=O)[C@H](Cc1ccccc1)NC(=O)[C@H](CC(N)=O)NC(=O)C(C)(C)NC(=O)[C@H](CO)NC(=O)[C@H](CO)NC(=O)[C@H](Cc1c[nH]cn1)NC(=O)[C@@H](NC(=O)[C@H](CC(C)C)NC(=O)[C@H](Cc1ccccc1)NC(=O)[C@H](CC(N)=O)NC(=O)[C@H](C)NC(=O)[C@H](CC(C)C)NC(=O)[C@H](CCCNC(=N)N)NC(=O)[C@H](CCC(N)=O)NC(=O)[C@@H](NC(=O)[C@H](C)NC(=O)[C@@H]1CSSC[C@H](NC(=O)[C@@H](N)CCCCNC(=O)CC[C@H](NC(=O)CC[C@H](NC(=O)CCCCCCCCCCCCCCCCC(=O)O)C(=O)O)C(=O)O)C(=O)N[C@@H](CC(N)=O)C(=O)N[C@@H]([C@@H](C)O)C(=O)N[C@@H](C)C(=O)N[C@@H]([C@@H](C)O)C(=O)N1)[C@@H](C)O)C(C)C)C(=O)N[C@@H](CC(C)C)C(=O)N[C@@H](CO)C(=O)N1CCC[C@H]1C(=O)N[C@H](C(=O)N[C@@H](CC(N)=O)C(=O)N[C@H](C(=O)NCC(=O)N[C@@H](CO)C(=O)N[C@@H](CC(N)=O)C(=O)N[C@H](C(=O)N[C@@H](Cc1ccc(O)cc1)C(N)=O)[C@@H](C)O)C(C)C)[C@@H](C)O [Peptide 9, K(γE-γE-C18diacid)[CNTATC]ATQRLANFLVHSS(Aib)NFPAILSPTNVGSNTY-amide] (H-K([γGlu-γGlu-C18 diacid])CNTATCATQRLANFLVHSS[Aib]NFPAILSPTNVGSNTY-NH2; disulfide 2-7; N-terminus assumed)
